Calls of active or inactive are those of the source.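 Rule for the calls: active = AC50 no more than tenfold above the top dose tested, or full inhibition at every dose with a flat fit (cut at about 19 µM in these data); inconclusive = flat curve fit with inhibition between 30% and 70%, or poor fit; inactive = AC50 more than tenfold above the top dose tested.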

This assay concerns HMLE_sh_eGFP viability, CellTiter-Glo luminescence, 72 h. In words: viability loss of HMLE_sh_eGFP cells – cell-based, luminescence, counter-screen for HMLE_sh_ECad selective toxicity project, dose response (AID 463074).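 Note: counterscreen control line to flag general toxicity for the HMLE_sh_ECad screen; potency for loss of viability as luminescence drops below DMSO wells.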 In general terms: Counterscreens check selectivity or assay interference.
Broadly, the AC50 is the concentration giving half of the maximal activity seen. As for `O=C(Nc1cccc(S(=O)(=O)Nc2ccc(Cl)cc2)c1)c1cc2c(s1)CCCC2`, the AC50 was 2.79 µM.

Turning to `O=C(N/N=C/c1cc([N+](=O)[O-])ccc1O)c1c[nH]c2ccccc12`, the AC50 was 16.5 µM.

Take `C[C@@H]1O[C@@H](O[C@H]2C[C@@H](O)[C@]3(CO)[C@@H]4C(CC[C@]3(O)C2)[C@@]2(O)CC[C@H](C3COC(=O)C3)[C@@]2(C)C[C@H]4O)[C@H](O)[C@H](O)[C@H]1O` (some centres not stated): the AC50 is 0.707 µM.

Take `CSc1ccc2c(c1)C(N1CCN(C)CC1)Cc1ccccc1S2` (configuration not stated): the AC50 was 15.1 µM.

As for `NCCNc1ccc(C(=O)N2c3ccccc3Sc3ccccc32)cc1[N+](=O)[O-]`, the AC50 was 8.03 µM.

Consider `CN1CCN(C2Cc3ccc(F)cc3Sc3cc(F)c(Cl)cc32)CC1` (configuration not stated), for which the AC50 is 5.49 µM.

Regarding `CC(C)[C@@H]1CC[C@@H](C)c2c(-c3ccccc3)n[nH]c21`, the AC50 was 6.38 µM.

Regarding `Oc1cccc(/C=C/c2ccc3cccc(O)c3n2)c1`, the half-maximal activity concentration (AC50) is 4.83 µM.

With `COc1ccc(-c2csc3nc(-c4ccccc4F)oc(=O)c23)cc1OC`, the AC50 was 3.86 µM.

`Cc1ccc(S(=O)(=O)N2CCCCC2)cc1NC(=O)Cn1ncc(Cl)c(Cl)c1=O`: the AC50 was 2.44 µM.

Turning to `Cc1ccc2nc(-c3ccccn3)c(Nc3ccccc3C)n2c1`, the AC50 was 5.04 µM.

`C[C@@H](CSc1ccc(Br)cc1)CN1CC[C@H](NC(=O)OCc2ccccc2)CCC1=O`: the AC50 was 5.5 µM.

Consider `Cc1ccc(-c2cc(C(=O)N/N=C/c3ccccc3O)n[nH]2)o1`, for which the AC50 was 10.2 µM.

Consider `Cn1nnnc1Sc1ncnc2scc(Br)c12`, for which the AC50 was 6.78 µM.

In the case of `Cc1cc(C2(c3ccc(O)c(C)c3)C(=O)Nc3ccccc32)ccc1O`, the concentration at half-maximal activity (AC50) is 7.1 µM.

Turning to `CN(C)CCOc1ccc(-c2c(-c3ccsc3)sc3ccccc23)cc1`, the AC50 is 3.04 µM.

`Clc1ccc(-c2nnc(-c3ccccc3)c(-c3ccccc3)n2)cc1`: the AC50 was 3.69 µM.

In the case of `CCOC(=O)C1=C(N)Oc2cc(O)ccc2C1c1cccc(Cl)c1` (configuration not stated), the AC50 was 4.06 µM.

Consider `CCSc1nnc(-c2sc3nnc(-c4ccccc4)c(-c4ccccc4)c3c2N)o1`, for which the AC50 is 0.539 µM.

Regarding `CN1CCN(C2=Cc3cc(Cl)ccc3Sc3cc(F)ccc32)CC1`, the AC50 was 7.29 µM.

As for `CCCCCc1nc2c(c(=O)c3ccccc3n2C)c(=O)n1C1CCCCCC1`, the AC50 is 2.97 µM.

With `C=C(C)Cn1c(SCC(=O)N/N=C/c2c(O)ccc3ccccc23)nc2ccccc2c1=O`, the AC50 is 5.62 µM.

Turning to `N=C(N)SCc1nc2ccccc2c(=O)n1-c1ccccc1Cl`, the AC50 was 12.5 µM.

For the molecule `O=c1c2cn[nH]c2nc(SCc2ccccc2F)n1-c1ccc(Br)cc1`, the AC50 was 4.9 µM.

In the case of `C=C(C)COc1ccc(-c2[nH]ncc2-c2ccc(OC)cc2)c(O)c1`, the AC50 is 8.86 µM.

Take `NS(=O)(=O)c1ccc(NC(=O)COC(=O)c2c3c(nc4ccccc24)/C(=C\c2ccc4c(c2)OCO4)CCC3)cc1`: the concentration at half-maximal activity (AC50) was 6.87 µM.

Regarding `Cc1cc(C)nc(NC(=NCCc2c[nH]c3ccccc23)NC(=O)Nc2ccc(Cl)cc2)n1`, the AC50 was > 19.5 µM (inactive).

For the molecule `Oc1ccc(N=Nc2c(O)ccc3ccccc23)cc1`, the AC50 was 5.36 µM.

For `C=CCn1c(O)c(C2=c3ccccc3=NC2=O)sc1=Nc1ccc(O)cc1`, the AC50 is 6.76 µM.

Take `COc1ccc(N(C(=O)c2ccccc2C)S(=O)(=O)c2cccs2)cc1`: the AC50 was 0.231 µM.

As for `Cc1cccc(CN2CCN(C(c3ccccc3)c3ccc(Cl)cc3)CC2)c1` (configuration not stated), the AC50 was 4.76 µM.

On to `Cc1cc(Nc2ccccc2)nc(-c2ccccc2O)n1`, for which the AC50 was 7.92 µM.

On to `O=C(Nc1ccc(O)cc1)c1ccc(NC(=O)c2cccs2)cc1`, for which the AC50 is 10 µM.

Regarding `CCc1ccccc1Nc1nn2c(=O)c3ccc(C(=O)NCc4ccccn4)cc3nc2s1`, the AC50 was less than 0.16 µM.

In the case of `COc1ccccc1C1=NOC(COc2ccc3c(C)cc(=O)oc3c2)C1` (configuration not stated), the AC50 was 0.288 µM.

`N#CC(C#N)=C(C#N)c1ccc(Nc2ccccc2)cc1`: the AC50 is 3.14 µM.

With `CCN1CCN(CCNC(=O)c2ccc3c(c2)N(Cc2ccc(F)cc2)C(=O)/C(=C/c2ccccc2)S3)CC1`, the AC50 was 3.71 µM.

On to `COc1ccc(-n2sc3c(c2=S)-c2cc(OC)ccc2NC3(C)C)cc1`, for which the AC50 was 3.51 µM.

Regarding `CCOC(=O)C(=NCCCN1CCOCC1)NNc1cccc(C(F)(F)F)c1`, the AC50 is 9.13 µM.

For the molecule `Cn1c(-c2ccsc2)c(-c2cccs2)c2cc(-c3ccc4[nH]ccc4c3)ccc21`, the AC50 is > 19.5 µM (inactive).

In the case of `CC(=O)NC1=C(C#N)C(c2ccccc2)c2c(ccc3ccccc23)O1` (configuration not stated), the AC50 was 3.44 µM.

For the molecule `CCCCCc1cc(=O)oc2c(C(CCN3CCCC(C)C3)c3cc(OC)c(OC)c(OC)c3)c(OC)cc(OC)c12` (configuration not stated), the concentration at half-maximal activity (AC50) was 7.18 µM.

For `CC(=O)O[C@H]1[C@H]2O[C@]23[C@@H]2CC[C@]4(O)C[C@@H](O)CC[C@]4(C)C2CC[C@]3(C)[C@H]1c1ccc(=O)oc1` (some centres not stated), the AC50 was less than 0.16 µM.

For `C/C(=N\Nc1ccccc1)c1c(O)n(C)c(=O)n(C)c1=O`, the AC50 is 4.05 µM.

As to `CCOC(=O)c1c(C)oc2c1C(=O)c1ccccc1C2=O`, the AC50 was 4.72 µM.

`CNC(=O)C1C(=S)NC(N)=C(C#N)C1c1ccccc1` (configuration not stated): the AC50 was > 19.5 µM (inactive).

For the molecule `COc1ccc(OC)c(NC(=O)c2nc(S(=O)(=O)Cc3ccccc3)ncc2Cl)c1`, the AC50 is 6.74 µM.

Take `COc1cc(OC)cc(C(=O)Nc2ccc(Nc3ccccc3)cc2)c1`: the AC50 is 7.41 µM.

For the molecule `COc1ccc(Cn2nnnc2C(C(C)C)N(Cc2ccco2)Cc2cccs2)cc1` (configuration not stated), the AC50 is > 19.5 µM (inactive).

For the molecule `O=C(Nc1ccccc1N1CCCCC1)c1ccc(Cl)c([N+](=O)[O-])c1`, the AC50 is 3.24 µM.

Turning to `Cc1nc2sccn2c(=O)c1CCN1CCC(=C(c2ccc(F)cc2)c2ccc(F)cc2)CC1`, the AC50 is 5.23 µM.

Take `O=[N+]([O-])c1cccnc1N1CCC(c2cc(-c3ccc(Cl)cc3Cl)n[nH]2)CC1`: the AC50 is 4.6 µM.

On to `Cc1cc(C(=O)N/N=C/c2cc(Br)cc(Br)c2OC(=O)c2cccc(F)c2)n[nH]1`, for which the AC50 was 3.3 µM.

Take `CCN(CC)c1ccc(/C=N/NC(=O)CCC(=O)NCc2ccccc2)c(O)c1`: the half-maximal activity concentration (AC50) is 8.23 µM.

With `CCN1CCN(C(=O)c2ccc(CSc3ccc(C)cc3)cc2)CC1`, the AC50 is 0.22 µM.

Regarding `CCC(C)Sc1cccc(-c2nc3ccc(C)cn3c2NCc2ccccc2)c1` (configuration not stated), the AC50 was 2.88 µM.

Consider `Nc1nc(Cl)nc2c1ncn2[C@H]1C[C@H](O)[C@@H](CO)O1`, for which the AC50 was 0.318 µM.

For `CC(C)(C)c1ccc(/C=C(\c2nc3ccccc3[nH]2)S(=O)(=O)c2ccccc2)cc1`, the AC50 was 1.42 µM.

Take `O=C1C(C2=NC(c3ccccn3)C3C(=O)N(c4ccc(Cl)cc4Cl)C(=O)C23)=C(O)c2ccccc21` (configuration not stated): the AC50 was > 19.5 µM (inactive).

Turning to `COc1cc(NS(=O)(=O)c2ccc(N/C=C(\C#N)c3nc4cc(Cl)ccc4o3)cc2)nc(OC)n1`, the half-maximal activity concentration (AC50) was 7.54 µM.

Turning to `Oc1ccc(Nc2nc(-c3ccccc3O)nc3ccccc23)cc1`, the AC50 was 4.27 µM.

Regarding `Cc1nn(-c2ccccc2)c(C)c1/C=N/n1c(-c2ccc(C(C)(C)C)cc2)n[nH]c1=S`, the AC50 is 6.74 µM.

As to `C[C@@H]1CC[C@H]2C(=O)N3[C@@H](CC[C@@H](C)[C@@H]3c3ccc(Br)cc3)C(=O)N2[C@H]1c1ccc(Br)cc1`, the concentration at half-maximal activity (AC50) was 4.41 µM.

`CC1(C)Cc2c(c(N3CCOCC3)nc3sc4c(NN)ncnc4c23)CS1`: the AC50 is 11.4 µM.

With `O=c1oc2ccccc2c(O)c1Cc1cc(Cl)c2cccnc2c1O`, the half-maximal activity concentration (AC50) is 4.9 µM.

Take `Brc1ccc2[nH]c3c(N4CCc5ccccc5C4)ncnc3c2c1`: the AC50 is 17.3 µM.

As for `O=c1cc(-c2ccccc2)[nH]n1-c1ccc([N+](=O)[O-])cc1`, the AC50 was 8.23 µM.

Turning to `COc1cc2nc(Nc3ccc(C)c(Cl)c3)nc(N)c2cc1OC`, the concentration at half-maximal activity (AC50) is 6.97 µM.

Take `C/C(N=Nc1nc2ccccc2s1)=N\Nc1ccccc1O`: the AC50 is 6.1 µM.

As for `O=C(c1c[nH]c2ccccc12)C(Cl)c1ccccc1` (configuration not stated), the AC50 is 11.2 µM.

Regarding `Cc1ccccc1/C=N/Nc1ccnc2cc(Cl)ccc12`, the half-maximal activity concentration (AC50) was 4.44 µM.

With `O=c1cc(N2CCCCC2)c(-c2ccccc2)nn1Cc1cccc(Cl)c1`, the concentration at half-maximal activity (AC50) was 4.56 µM.

As for `O=[N+]([O-])c1ccc(O)c(-c2nc(-c3ccccc3)c(-c3cccs3)[nH]2)c1`, the AC50 was 1.69 µM.

On to `COc1cccc(-c2sc3ccccc3c2-c2ccc(OCCN(C)C)cc2)c1`, for which the half-maximal activity concentration (AC50) was 3.34 µM.

For the molecule `c1ccc(CN2CCN(c3nc(NCc4ccco4)c4ccccc4n3)CC2)cc1`, the AC50 was 4.22 µM.

With `O=C(NCc1ccco1)c1nc2c(nnn2Cc2ccccc2Cl)c(=O)[nH]1`, the AC50 was 1.92 µM.

`COc1ccc(C(=O)/C=C/c2ccc(OC)c(Cn3nnc4ccccc43)c2)cc1`: the AC50 is 6.82 µM.

As for `CC(=O)c1ccc(N2CCN(c3ccc(S(=O)(=O)NCCCN(C)C)cc3[N+](=O)[O-])CC2)cc1`, the AC50 was 2.92 µM.

As for `COc1ccc(C2=NN(c3nc4ccccc4s3)C(=O)C2)cc1`, the AC50 was 4.7 µM.

Consider `CCN(CC)CCCNC(=S)N1CCN(c2nc(-c3ccc(F)cc3)cs2)CC1`, for which the AC50 is 2.44 µM.

For the molecule `COc1cc(NC(=O)Nc2cccc(Cl)c2)c(OC)cc1NC(=O)CN1CCCCC1`, the AC50 was 4.3 µM.

For the molecule `COc1cc(NS(C)(=O)=O)ccc1Nc1c2ccccc2nc2ccccc12`, the AC50 was 2.11 µM.

For the molecule `NC(=O)CC(NC(=O)c1ccc(Br)cc1)c1ccc(NCc2ccc(F)cc2)c([N+](=O)[O-])c1` (configuration not stated), the AC50 was 4.61 µM.

Regarding `Cc1onc(-c2c(Cl)cccc2Cl)c1C(=O)N/N=C(\N)COc1ccc(Cl)cc1`, the AC50 is 3.8 µM.

For the molecule `CCOC(=O)C(C(=O)OCC)C(Nc1ccc(Br)cc1)c1ccccc1` (configuration not stated), the AC50 was 19.8 µM.

For `c1ccc(CNc2c(-c3cccc(SC4CCCCC4)c3)nc3ccccn23)cc1`, the AC50 is 3.6 µM.

On to `N/C(=N\N=C/c1ccc(Br)cc1)N/N=C\c1ccc(Br)cc1`, for which the AC50 is 3.83 µM.

In the case of `CCOC(=O)c1cnc(-n2nc(C)cc2C)nc1NNc1nc(-c2ccccc2)cc(-c2ccccc2)n1`, the AC50 was 3.25 µM.

As to `CC1(C)CC2CC(C)(CN2/C=N/c2sc3c(c2C#N)CC(C)(C)NC3(C)C)C1` (configuration not stated), the concentration at half-maximal activity (AC50) is 2.59 µM.

As for `Cn1nc([N+](=O)[O-])c(C(C#N)c2ccccn2)c(Cl)c1=O` (configuration not stated), the AC50 is 15.3 µM.

For `O=S(=O)(Nc1ccc(O)c(Sc2nc3ccccc3s2)c1)c1cccc2ccccc12`, the AC50 was 5.83 µM.

Consider `Cc1cc(N/N=C/c2ccccc2Cl)nc(NCc2ccccc2)n1`, for which the AC50 is 4.04 µM.

For the origin of these results see PubChem BioAssay AID463074 (Broad Institute, 2010).
